Data on 26 molecules can be found in paper PMC12304826, “Redirecting the Peptide Cleavage Causes Protease Inactivation” (Angewandte Chemie (International Ed. in English), 2025).

Where only a bound is given, the exact number is not on record here.

The first assay addresses T1, human cathepsin K (Homo sapiens, UniProt P43235).
T1 construct: purchased Enzo Life Sciences, Lörrach, Germany
T1 sequence (P43235 115-329): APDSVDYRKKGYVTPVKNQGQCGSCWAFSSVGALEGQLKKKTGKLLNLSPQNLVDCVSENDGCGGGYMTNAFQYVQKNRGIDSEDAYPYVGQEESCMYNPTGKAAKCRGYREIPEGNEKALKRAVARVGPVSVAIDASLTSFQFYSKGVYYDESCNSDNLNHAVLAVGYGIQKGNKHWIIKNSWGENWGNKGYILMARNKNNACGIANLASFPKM
Kind of assay: Cathepsin K inhibition assay (Cbz-Leu-Arg-AMC). Format: biochemical. Particulars: 20 µM inhibitor, 60 min; read-out: Residual activity @ 20 µM (%) Cat K. As to the method: 1. Enzyme Inhibition Assays and Kinetic Data of Inhibition of Cathepsins B, L, K and S General. Human cathepsins were assayed either fluorimetrically or spectrophotometrically as noted below. The 10 mM inhibitor solutions were prepared in DMSO. The final concentration of DMSO in all assays was 2%. Non-linear regressions were conducted with GraFit 5. Residual cathepsin activity at an inhibitor concentration of 20 µM was determined from duplicate measurements based on the product formation after 60 min. Concentration dependent measurements were performed in duplicate measurements with five different inhibitor concentrations when the residual cathepsin activity in the presence of 20 µM inhibitor was below 70% (cathepsin B) or below 50% (cathepsins cathepsins L, K, and S). Progress curves were monitored for 60 min. First-order rate constants, kobs, were determined by non-linear regression following the equation [P] = vi × (1 – exp(-kobs × t))/kobs + d, where [P] is the product concentration, vi is the initial product formation rate, kobs is the observed first-order rate constant, and d is the offset. Mean values of kobs were plotted versus corresponding inhibitor concentrations [I], and second-order rate constants of inactivation, kinac/Ki, were obtained by linear regression. The equation kobs/[I] = (kinac/Ki)/(1 + [S]/Km) was used, where [S] is the substrate concentration and Km is the Michaelis-Menten constant. Standard errors (SE) refer to the linear regression. […] Cathepsin K inhibition assay.[1] Human recombinant cathepsin K (Enzo Life Sciences, Lörrach, Germany) was assayed fluorimetrically on a Monaco Safas spectrofluorometer flx or a Fluostar OPTIMA plate reader (BMG Labtech, Ortenberg, Germany). The wavelength for excitation was 360 nm and for emission 440 nm. The reactions were followed at 25 °C. A human cathepsin K stock solution of 23 µg/mL in 50 mM sodium acetate pH 5.5, 50 mM NaCl, 0.5 mM EDTA, 5 mM DTT was diluted 1:100 with assay buffer (100 mM sodium citrate pH 5.0, 100 mM NaCl, 1 mM EDTA, 0.01% CHAPS) containing 5 mM DTT and incubated for 30 min at 37 °C. A 10 mM stock solution of the 7-amino-4-methyl-coumarin (AMC)-based fluorogenic substrate Cbz-Leu-Arg-AMC was prepared in DMSO. The final concentration of the substrate was 40 μM (= 13.3 Km). When using the spectrofluorometer, into a cuvette containing 960 μL assay buffer, inhibitor solution and DMSO in a total volume of 16 μL, and 4 μL of the substrate solution were added and mixed. The reaction was initiated by adding 20 µL of the cathepsin K solution. When using the plate reader, into a well containing 192 µL assay buffer, inhibitor solution and DMSO in a total volume of 3.2 µL and 0.8 µL of the substrate solution were added and mixed. The reaction was initiated by adding 4 µL of the cathepsin K solution.
Cathepsin S inhibition assay.[2] […]
DTT, 0.5% Triton X-100 and 30% glycerol was diluted 1:100 with a 50 mM sodium phosphate buffer pH 6.5, 50 mM NaCl, 2 mM EDTA, 0.01% Triton X-100 and 5 mM DTT and incubated for 60 min at 37 °C. A 10 mM stock solution of the fluorogenic substrate Cbz-Phe-Arg-AMC was prepared in DMSO.
The assay was performed with a final substrate concentration of 40 µM (= 0.74 Km). When using the spectrofluorometer, into a cuvette containing 920 μL assay buffer, inhibitor solution and DMSO in a total volume of 16 μL, and 4 μL of the substrate solution were added and mixed. The reaction was initiated by adding 60 μL of the cathepsin S solution. When using the plate reader, into a well containing 188 µL assay buffer, inhibitor solution and DMSO in a total volume of 3.2 µL and 0.8 µL of the substrate solution were added and mixed. The reaction was initiated by adding […] of the cathepsin S solution.
For the molecule `CC(C)CC(NC(=O)Oc1ccccc1)C(=O)NC(Cc1ccccc1)C(=O)O` (centres unmarked) [Compound 1], the remaining activity at 20 µM stood at 77%.
As to `CC(C)C[C@H](NC(=O)Oc1ccc(Cl)cc1)C(=O)N[C@@H](Cc1ccccc1)C(=O)OC(C)(C)C` [Compound 2], the remaining activity at 20 µM was determined as 93%.
With `COC(=O)C(Cc1ccccc1)NC(=O)C(CC(C)C)NC(=O)Oc1ccc(Cl)cc1` (centres unmarked) [Compound 3], the remaining activity at 20 µM is no less than 98%.
For the molecule `CC(C)C[C@H](NC(=O)Oc1ccc(Cl)cc1)C(=O)N[C@@H](Cc1ccccc1)C(=O)O` [Compound 4], the remaining activity at 20 µM amounted to 92%.
Regarding `CC(C)CC(CNC(=O)Oc1ccc(Cl)cc1)C(=O)N[C@H](Cc1ccccc1)C(=O)O` (some centres unmarked) [Compound 5], the remaining activity at 20 µM was found to be 70%.
The same measure, in the same setting: as for `O=C(NC(CC1CCCCC1)C(=O)NC(Cc1ccccc1)C(=O)O)Oc1ccc(Cl)cc1` (centres unmarked) [Compound 7], the figure is 60%; as for `CC(C)C[C@H](NC(=O)Oc1ccc(Cl)cc1)C(=O)N1CCC[C@H]1C(=O)O` [Compound 8], 91%; as for `CC(C)CC(CNC(=O)Oc1ccc(Cl)cc1)C(=O)N1CCC[C@@H]1C(=O)O` (some centres unmarked) [Compound 9], 85%.
Take `CC(C)C[C@H](NC(=O)Oc1ccc(Cl)cc1)C(=O)N1CCCC[C@H]1C(=O)O` [Compound 10]: the remaining activity at 20 µM stood at 93%.
Regarding `CC(C)C[C@@H](C(=O)N1CCC[C@H]1C(=O)O)N(C)C(=O)Oc1ccc(Cl)cc1` [Compound 15], the remaining activity at 20 µM was 91%.
In the case of `CC(C)CC(OC(=O)Nc1ccc(Cl)cc1)C(=O)N1CCC[C@H]1C(=O)O` (some centres unmarked) [Compound 17], the remaining activity at 20 µM was determined as 95%.
Take `CC(C)C[C@H](NC(=O)Nc1ccc(Cl)cc1)C(=O)N[C@@H](Cc1ccccc1)C(=O)O` [Compound 18]: the remaining activity at 20 µM worked out at 87%.
With `CC(C)C[C@H](NC(=O)Nc1ccc(Cl)cc1)C(=O)N1CCC[C@H]1C(=O)O` [Compound 19], the remaining activity at 20 µM was 92%.
Take `CC(C)C[C@H](NC(=O)Oc1ccc(Cl)c(NC(=O)Cc2ccccc2)c1)C(=O)N1CCC[C@H]1C(=O)O` [Compound 20]: the remaining activity at 20 µM is 82%.
Regarding `CC(C)C[C@H](NC(=O)Oc1ccc(-c2ccccc2)c(NC(=O)Cc2ccccc2)c1)C(=O)N1CCC[C@H]1C(=O)O` [Compound 21], the remaining activity at 20 µM stood at 73%.
For `CC(C)CC(NC(=O)Oc1ccc(Cl)c(NC(=O)C(c2ccccc2)c2ccccc2)c1)C(=O)N1CCCC1C(=O)O` (centres unmarked) [Compound 22], the remaining activity at 20 µM is 87%.
As for `CC(C)C[C@H](NC(=O)Oc1cccc(Cl)c1)C(=O)N1CCC[C@H]1C(=O)O` [Compound 23], the remaining activity at 20 µM worked out at 87%.
Turning to `CC(C)C[C@H](NC(=O)Oc1ccc(NC(=O)Cc2ccccc2)c(Cl)c1)C(=O)N1CCC[C@H]1C(=O)O` [Compound 24], the remaining activity at 20 µM was determined as 95%.
As for `CC(C)C[C@H](NC(=O)Oc1ccc(NC(=O)N(Cc2ccccc2)Cc2ccccc2)c(Br)c1)C(=O)N1CCC[C@H]1C(=O)O` [Compound 26], the remaining activity at 20 µM is 83%.
As for `CC(C)CC(NC(=O)Oc1ccc(NC(=O)C(c2ccccc2)c2ccccc2)c(Br)c1)C(=O)N1CCCC1C(=O)O` (centres unmarked) [Compound 27], the remaining activity at 20 µM amounted to 90%.
Take `CC(C)CC(NC(=O)Oc1ccc(NC(=O)C(c2ccccc2)c2ccccc2)c(Cl)c1)C(=O)N1CCCC1C(=O)O` (centres unmarked) [Compound 28]: the remaining activity at 20 µM was 83%.

The assay is the same for the next values; noted with them: five inhibitor concentrations, 60 min progress curves.
Consider `CC(C)CC(OC(=O)Nc1ccc(Cl)cc1)C(=O)N[C@@H](Cc1ccccc1)C(=O)O` (some centres unmarked) [Compound 16], for which the “kinac/Ki ± SE Cat K” value was determined as 185 M⁻¹ s⁻¹.
For the molecule `O=C(NC(CC1CCCCC1)C(=O)NC(Cc1ccccc1)C(=O)O)Oc1ccc(NC(=O)C(c2ccccc2)c2ccccc2)c(Cl)c1` (centres unmarked) [Compound 30], the “kinac/Ki ± SE Cat K” value was 3490 M⁻¹ s⁻¹.
Take `O=C(NC(CC1CCCCC1)C(=O)NC(Cc1ccccc1)C(=O)O)Oc1ccc(NC(=O)C(Cc2ccccc2)Cc2ccccc2)c(Cl)c1` (centres unmarked) [Compound 31]: the “kinac/Ki ± SE Cat K” value was determined as 23.1 M⁻¹ s⁻¹.

Still in this assay, the particulars now being: inhibitor not soluble at 20 µM; calculated for 20 µM from IC50 at two lower concentrations; read-out: Residual activity @ 20 µM (%) Cat K, approximated [e].
Consider `CC(C)CC(NC(=O)Oc1ccc(NC(=O)c2ccc(-c3ccccc3)cc2)c(Cl)c1)C(=O)N1CCCC1C(=O)O` (centres unmarked) [Compound 25], for which the remaining activity at 20 µM was 76%.
For `CC(C)CC(NC(=O)Oc1ccc(NC(=O)C(c2ccccc2)c2ccccc2)c(Cl)c1)C(=O)NC(Cc1ccccc1)C(=O)O` (centres unmarked) [Compound 29], the remaining activity at 20 µM is 8%.
